According to ChEMBL document CHEMBL1949518, “Synthesis and biological evaluation of some new 2-pyrazolines bearing benzene sulfonamide moiety as potential anti-inflammatory and anti-cancer agents” (Eur J Med Chem, 2011):

Key:
Assay type in all cases: functional
T47D = experiment: Anticancer activity against human T47D cells after 48 hrs by SRB assay
M14 = experiment: Anticancer activity against human M14 cells after 48 hrs by SRB assay; details: M14, 48 h
MCF7 = experiment: Anticancer activity against human MCF7 cells after 48 hrs by SRB assay; details: MCF7, 48 h
OVCAR-5 = experiment: Anticancer activity against human OVCAR5 cells after 48 hrs by SRB assay; details: OVCAR-5, 48 h
UACC-62 = experiment: Anticancer activity against human UACC62 cells after 48 hrs by SRB assay; details: UACC-62, 48 h
TK-10 = experiment: Anticancer activity against human TK10 cells after 48 hrs by SRB assay; details: TK-10, 48 h
U-251 = experiment: Anticancer activity against human U251 cells after 48 hrs by SRB assay; details: U-251, 48 h
EKVX = experiment: Anticancer activity against human EKVX cells after 48 hrs by SRB assay
SW-620 = experiment: Anticancer activity against human SW620 cells after 48 hrs by SRB assay; details: SW-620, 48 h
MDA-MB-435 = experiment: Anticancer activity against human MDA-MB-435 cells after 48 hrs by SRB assay; details: MDA-MB-435, 48 h
SF-268 = experiment: Anticancer activity against human SF268 cells after 48 hrs by SRB assay; details: SF-268, 48 h
NCI-H460 = experiment: Anticancer activity against human NCI-H460 cells after 48 hrs by SRB assay; details: NCI-H460, 48 h
NCI-H522 = experiment: Anticancer activity against human NCI-H522 cells after 48 hrs by SRB assay; details: NCI-H522, 48 h
SNB-19 = experiment: Anticancer activity against human SNB19 cells after 48 hrs by SRB assay; details: SNB-19, 48 h
SF-539 = experiment: Anticancer activity against human SF539 cells after 48 hrs by SRB assay; details: SF-539, 48 h
A549 = experiment: Anticancer activity against human A549 cells after 48 hrs by SRB assay; details: A549, 48 h
SF-295 = experiment: Anticancer activity against human SF295 cells after 48 hrs by SRB assay; details: SF-295, 48 h
SK-MEL-28 = experiment: Anticancer activity against human SK-MEL-28 cells after 48 hrs by SRB assay; details: SK-MEL-28, 48 h
SK-MEL-2 = experiment: Anticancer activity against human SK-MEL-2 cells after 48 hrs by SRB assay; details: SK-MEL-2, 48 h
SN12C = experiment: Anticancer activity against human SN12C cells after 48 hrs by SRB assay
HOP-62 = experiment: Anticancer activity against human HOP62 cells after 48 hrs by SRB assay; details: HOP-62, 48 h
NCI-H322M = experiment: Anticancer activity against human NCI-H322M cells after 48 hrs by SRB assay
HL-60(TB) = experiment: Anticancer activity against human HL-60(TB) cells after 48 hrs by SRB assay; details: HL-60, 48 h
KM12 = experiment: Anticancer activity against human KM12 cells after 48 hrs by SRB assay; details: KM12, 48 h
OVCAR-3 = experiment: Anticancer activity against human OVCAR3 cells after 48 hrs by SRB assay; details: OVCAR-3, 48 h
K562 = experiment: Anticancer activity against human K562 cells after 48 hrs by SRB assay; details: K562, 48 h
Malme-3M = experiment: Anticancer activity against human MALME-3M cells after 48 hrs by SRB assay
HCT-15 = experiment: Anticancer activity against human HCT15 cells after 48 hrs by SRB assay; details: HCT-15, 48 h
A498 = experiment: Anticancer activity against human A498 cells after 48 hrs by SRB assay; details: A498, 48 h
IGROV-1 = experiment: Anticancer activity against human IGROV1 cells after 48 hrs by SRB assay; details: IGROV-1, 48 h
COLO 205 = experiment: Anticancer activity against human COLO205 cells after 48 hrs by SRB assay; details: COLO 205, 48 h
NCI-H226 = experiment: Anticancer activity against human NCI-H226 cells after 48 hrs by SRB assay; details: NCI-H226, 48 h
ACHN = experiment: Anticancer activity against human ACHN cells after 48 hrs by SRB assay
UACC-257 = experiment: Anticancer activity against human UACC257 cells after 48 hrs by SRB assay; details: UACC-257, 48 h
NCI/ADR-RES = experiment: Anticancer activity against human NCI/ADR-RES cells after 48 hrs by SRB assay
[1] = read-out: LC50 (the source's name)

Cc1cc(O)c(C2=NN(c3ccc(S(N)(=O)=O)cc3)C(c3ccc(Cl)cc3)C2)c(C)c1Cl (stereo unspecified)
GI50 (T47D): 5.72 µM | TGI (T47D): 19.7 µM | CC50 (T47D; [1]): 51.4 µM | GI50 (M14): 14 µM | TGI (M14): 29.4 µM | CC50 (M14; [1]): 61.5 µM | GI50 (MCF7): 6.55 µM | TGI (MCF7): 24.2 µM | CC50 (MCF7; [1]): 71.1 µM | GI50 (OVCAR-5): 19.4 µM | TGI (OVCAR-5): 38.1 µM | GI50 (UACC-62): 9.92 µM | TGI (UACC-62): 25.8 µM | GI50 (TK-10): 22.1 µM | TGI (TK-10): 42.4 µM | CC50 (TK-10; [1]): 81.4 µM | GI50 (U-251): 11.8 µM | TGI (U-251): 26.9 µM | GI50 (EKVX): 13.3 µM | TGI (EKVX): 36.1 µM | GI50 (SW-620): 18.4 µM | TGI (SW-620): 37.8 µM | GI50 (MDA-MB-435): 13.4 µM | TGI (MDA-MB-435): 31 µM | GI50 (SF-268): 18.7 µM | TGI (SF-268): 37.2 µM | CC50 (SF-268; [1]): 73.9 µM | GI50 (NCI-H460): 12.2 µM | TGI (NCI-H460): 27.4 µM | CC50 (NCI-H460; [1]): 61.4 µM | GI50 (NCI-H522): 18.6 µM | TGI (NCI-H522): 48.4 µM | GI50 (SNB-19): 22.2 µM | TGI (SNB-19): 62.6 µM | GI50 (SF-539): 15.7 µM | TGI (SF-539): 29.3 µM | GI50 (A549): 14.7 µM | TGI (A549): 43.4 µM | GI50 (SF-295): 19.2 µM | TGI (SF-295): 44.4 µM | GI50 (SK-MEL-28): 19.4 µM | TGI (SK-MEL-28): 35.6 µM | GI50 (SK-MEL-2): 21.4 µM | TGI (SK-MEL-2): 43.6 µM | GI50 (SN12C): 9.62 µM | TGI (SN12C): 24.9 µM | CC50 (SN12C; [1]): 63 µM | GI50 (HOP-62): 18.6 µM | TGI (HOP-62): 34.8 µM | GI50 (NCI-H322M): 18 µM | TGI (NCI-H322M): 38.9 µM | GI50 (HL-60(TB)): 20.3 µM | TGI (HL-60(TB)): 50 µM | GI50 (KM12): 13.3 µM | TGI (KM12): 28.3 µM | GI50 (OVCAR-3): 17.8 µM | TGI (OVCAR-3): 33.3 µM | GI50 (K562): 14 µM | TGI (K562): 44.8 µM | GI50 (Malme-3M): 14.8 µM | TGI (Malme-3M): 32.7 µM | CC50 (Malme-3M; [1]): 72.1 µM | GI50 (HCT-15): 14.2 µM | TGI (HCT-15): 32 µM | GI50 (A498): 26.7 µM | TGI (A498): 43.9 µM | CC50 (A498; [1]): 72.2 µM | GI50 (IGROV-1): 18.3 µM | TGI (IGROV-1): 59 µM | GI50 (COLO 205): 12.3 µM | TGI (COLO 205): 25.4 µM | GI50 (NCI-H226): 13.4 µM | TGI (NCI-H226): 29.4 µM | GI50 (ACHN): 14.9 µM | TGI (ACHN): 30.6 µM | CC50 (ACHN; [1]): 62.9 µM | GI50 (UACC-257): 26.3 µM | TGI (UACC-257): 63.1 µM | GI50 (NCI/ADR-RES): 19.3 µM | TGI (NCI/ADR-RES): 76.4 µM | CC50 (NCI/ADR-RES; [1]): 100 µM
